Assay results reported in article PMC11820944, “Safirinium Fluorescent “Click” Molecular Probes: Synthesis, CuAAC Reactions, and Microscopic Imaging” (Molecules, 2025).

Tests used:
[1] = Chemical stability of aqueous solution in daylight, RP-HPLC with fluorescence detection; assay type: physicochemical
Text: To assess the chemical stability of Safirinium-based alkyne probes for RP-HPLC analysis, we developed a preliminary RP-HPLC method with fluorescent detection for the alkyne probe 1. This was accomplished using an LC-PCN column and a simple isocratic elution approach. Subsequently, we prepared a 10^−6 M aqueous solution of probe 1 and kept it exposed to natural daylight on a laboratory bench for 7 days. […] Assuming pseudo-first-order kinetics, it can be calculated that probe 1 can remain stable (95%) under such conditions for 12 h.
RP-HPLC analyses with fluorescence detection (Method B) were performed on a LaChrom Elite HPLC system, (VWR-Hitachi, Japan), equipped with a L-2130 pump, a L-2485 FL detector, a L-2350 column oven, and an L-2200 autosampler, the system was controlled with EZChrom Elite version 3.2, Agilent software. Separations were performed on a SUPELCOSIL LC-PCN 250 × 4.6 mm column with 5 µm grain size, under 1 mL/min isocratic elution with 50:50 v/v water: acetonitrile mixture, acidified with 0.1% formic acid. Injection volume was 20 µL; 10^−6 mol/dm^3 solution of probe 1 in water was prepared in a clear HPLC sample vial and analyzed directly after preparation and after 7 days (168 h) of standing on a lab bench, exposed to natural daylight at room temperature. Example chromatograms are presented in the electronic supporting information.

[2] = Fluorescence emission spectra and quantum yields (comparative method); assay type: physicochemical; conditions: for λ Emission: 1·10^-6 mol/dm^3, 365 nm excitation; for Fluorescence Quantum Yield: against A1 standard
Description: Fluorescence spectra were recorded using a Hitachi F-70000 spectrofluorimeter (P VWR-Hitachi, Japan), for 1 × 10^−6 mol/dm^3 solutions of the compounds in water and acetonitrile, at 365 nm excitation wavelength, using 5 nm excitation and 2.5 nm emission slits, and 700 V photomultiplier voltage. The spectra (Figures S2 and S4) were recorded in 400–700 nm range. The 1 × 10^−6 mol/dm^3 solutions were prepared by 100-fold dilution of the solutions used for absorption measurement.
Quantum yields of fluorescence (Table 1) were determined using the comparative method, from Formula (1), using the recorded absorption and emission spectra and diethyl Safirinium P zwitterion A1 (ϕ = 0.755 in water) as standard.(1) Φ=ΦstdFAstdnstd2/FstdAn^2 where ϕ, ϕstd—quantum yields; F, Fstd—integrals under fluorescence emission curves; A, Astd—absorbance at excitation wavelength, and n, nstd—refractive indices, for the compound and standard (std subscript), respectively.

CHO-K1 cells = experiment: Cellular uptake and distribution by fluorescence (confocal) microscopy; assay type: cell-based, Chinese hamster; conditions: 10 µM, 30 min
Description: Figure 6 Cellular uptake and intracellular distribution of selected probes (1 and 6) and triazole derivatives (11, 12, 13, and 15) in Chinese hamster ovary cells. CHO-K1 cells were cultured overnight and then incubated with the tested compounds (10 μM). Representative images (100× magnification) illustrating intracellular distribution of the compounds in CHO-K1 cells were captured after 30 min of incubation with the tested compounds. Scale bar = 20 μm.
CHO-K1 cells were seeded at a density of 2 × 10^5/well in 12-well plates containing cover slips at the bottom and cells were incubated for 24 h. Then, cells were fixed in 3.7% formaldehyde in PBS for 10 min in 37 °C, washed twice with PBS, and stained with compound solution (10 µM) for 30 min. After this time, the cells were rinsed 2 times with Gibco FluoroBrite DMEM and a coverslip was placed on a stock carrier with drops of culture medium. Finally, slides were mounted in ProLong™ Glass Antifade Mountant and visualized under an A1 confocal system built on a Nikon Eclipse Ti-E microscope (Japan) equipped with 405 and 561 nm diode lasers and a Plan Apo 100×/1.4 Oil DIC objective.

[3] = MTT cell viability assay, NIH-3T3 cells; assay type: cell-based; conditions: mouse, 24 h incubation, read-out: IC50 (cytotoxicity, cell viability)
Text: (§1) CHO-K1 cell line was derived as a subclone from the parental CHO cell line, which was initiated from a biopsy of an ovary of an adult, female Chinese hamster commercially available in ATCC (CCL-61™). NIH-3T3 cell line was obtained from DSMZ, the German Collection of Microorganisms and Cell Cultures. CHO-K1 and NIH-3T3 cells were cultivated in F-12K Medium (ATCC 30-2004) and Dulbecco’s MEM with Glutamax™ 1 Medium (Gibco, Paisley, UK), respectively. Culture media were supplemented with fetal bovine serum (FBS, Gibco, Thermo Fisher Scientific, Waltham, MA, USA) to a final concentration of 10% and antibiotic to final concentration of 1% (pent/strept, Gibco, Thermo Fisher Scientific, Waltham, MA, USA). Cells were cultured in standard culture conditions (5% CO2, 37 °C, 95% humidity).
Cell viability was determined by the 3-(4,5-dimethylthiazol-2-yl)-2,5-diphenyltetrazolium bromide (MTT, Sigma Aldrich, Burlington, MA, USA) assay. Cells were seeded into 96-well plates at density of 2 × 10^4 cell/well and cultured in the presence of compounds (1–4, 6–9, 11–13, and 15) at concentration range 1.56–100 µM for 24 h. The MTT reagent (final concentration 0.5 mg/mL) was added to each well for 3 h, and then formazan crystals were dissolved in DMSO. The absorbance was measured at 570 nm (SpectraMax® iD3, Molecular Devices, San Jose, CA, USA) and the experiment was performed two times in duplicates. Cells viability was expressed as a percentage of viability (in comparison to non-treated cells normalized to 100%). Data were analyzed using GraphPad Prism Software (GraphPad Software, Inc., San Diego, CA, USA, version 10.3.1).

in vitro = assay type: cell-based; conditions: Chinese hamster
Text: as §1
Cell viability was determined by the 3-(4,5-dimethylthiazol-2-yl)-2,5-diphenyltetrazolium bromide (MTT, Sigma Aldrich, Burlington, MA, USA) assay. […] The absorbance was measured at 570 nm (SpectraMax® iD3, Molecular Devices, San Jose, CA, USA) and the experiment was performed two times in duplicates. Cells viability was expressed as a percentage of viability (in comparison to non-treated cells normalized to 100%). Data were analyzed using GraphPad Prism Software (GraphPad Software, Inc., San Diego, CA, USA, version 10.3.1).

[4] = design: method as in PMID 23893376; conditions: in water; cited from earlier work

Row | λ Emission ([2]; Acetonitrile) [nm] | Fluorescence Quantum Yield ([2]; Acetonitrile) | λ Emission ([2]; H2O) [nm] | Fluorescence Quantum Yield ([2]; H2O) | Structure (SMILES) | Cellular uptake and intracellular distribution (CHO-K1 cells) | IC50 at 24 h [3] [µM] | also measured
1 | 443 | 0.86 | 446 | 1.00 | C#CCNC(=O)C1=C(C)C=C(C)N2C[N+](CC)(CC)N=C12.[Br-] [Compound 1, 2,2-Diethyl-5,7-dimethyl-8-[(prop-2-yn-1-yl)carbamoyl]-2H,3H-[1,2,4]triazolo [4,3-a]pyridin-2-ium bromide] | capable of entering the cytoplasm of the cells; however, they did not penetrate the nuclei | – | half-life ([1]; 10^-6 M aqueous solution exposed to natural daylight): ~168 h; RP-HPLC peak area decrease ([1]; 10^-6 M aqueous solution, natural daylight, room temperature, 7 days): 50%; Time of remaining stable (95%) ([1]; aqueous solution exposed to daylight, assuming pseudo-first-order kinetics): 12 h
2 | – | – | – | – | C#CCNC(=O)C1=C(C)C=C(C)N2C[N+](CCCCCCCC)(CCCCCCCC)N=C12 [Compound 2, 5,7-Dimethyl-2,2-dioctyl-8-(prop-2-yn-1-ylcarbamoyl)-2,3-dihydro-[1,2,4]triazolo[4,3-a]pyridin-2-ium bromide] | – | 17.5 | –
3 | 455 | 0.71 | 462 | 0.62 | C#CCNC(=O)C1=Cc2ccccc2N2C[N+](CC)(CC)N=C12.[Br-] [Compound 3, 2,2-Diethyl-4-(prop-2-yn-1-ylcarbamoyl)-1,2-dihydro-[1,2,4]triazolo[4,3-a]quinolin-2-ium bromide] | – | – | –
4 | – | – | – | – | C#CCNC(=O)C1=Cc2ccccc2N2C[N+](CCCCCCCC)(CCCCCCCC)N=C12 [Compound 4, 2,2-Dioctyl-4-(prop-2-yn-1-ylcarbamoyl)-1,2-dihydro-[1,2,4]triazolo[4,3-a]quinolin-2-ium bromide] | – | 8.7 | IC50 at 24 h (in vitro): 17.3 µM
5 | – | – | – | – | CC[N+]1(CC)CN2C(C)=CC(C)=C(C(=O)NCCCCCN=[N+]=[N-])C2=N1.[Br-] [Compound 6, 8-((5-Azidopentyl)carbamoyl)-2,2-diethyl-5,7-dimethyl-2,3-dihydro-[1,2,4]triazolo[4,3-a]pyridin-2-ium bromide] | capable of entering the cytoplasm of the cells; however, they did not penetrate the nuclei | – | –
6 | – | – | – | – | CCCCCCCC[N+]1(CCCCCCCC)CN2C(C)=CC(C)=C(C(=O)NCCCCCN=[N+]=[N-])C2=N1 [Compound 7, 8-((5-Azidopentyl)carbamoyl)-5,7-dimethyl-2,2-dioctyl-2,3-dihydro-[1,2,4]triazolo[4,3-a]pyridin-2-ium bromide] | – | 26.4 | –
7 | 452 | 0.68 | 459 | 0.60 | CC[N+]1(CC)CN2C(=N1)C(C(=O)NCCCCCN=[N+]=[N-])=Cc1ccccc12.[Br-] [Compound 8, 4-((5-Azidopentyl)carbamoyl)-2,2-diethyl-1,2-dihydro-[1,2,4]triazolo[4,3-a]quinolin-2-ium bromide] | – | – | –
8 | – | – | – | – | CCCCCCCC[N+]1(CCCCCCCC)CN2C(=N1)C(C(=O)NCCCCCN=[N+]=[N-])=Cc1ccccc12 [Compound 9, 4-((5-Azidopentyl)carbamoyl)-2,2-dioctyl-1,2-dihydro-[1,2,4]triazolo[4,3-a]quinolin-2-ium bromide] | – | 13 | IC50 at 24 h (in vitro): 11 µM
9 | 443 | 0.86 | 446 | 0.28 | CCCCCCCCCCCCCCn1cc(CNC(=O)C2=C(C)C=C(C)N3C[N+](CC)(CC)N=C23)nn1.[Br-] [Compound 11, 2,2-Diethyl-5,7-dimethyl-8-(((1-tetradecyl-1H-1,2,3-triazol-4-yl)methyl)carbamoyl)-2,3-dihydro-[1,2,4]triazolo[4,3-a]pyridin-2-ium bromide] | capable of entering the cytoplasm of the cells; however, they did not penetrate the nuclei | – | –
10 | – | – | – | – | CC[N+]1(CC)CN2C(=N1)C(C(=O)NCc1cn(C3O[C@H](COC(C)=O)[C@@H](OC(C)=O)[C@H](OC(C)=O)[C@H]3OC(C)=O)nn1)=Cc1ccccc12.[Br-] (stereo partly drawn) [Compound 12, 2,2-Diethyl-4-(((1-((3R,4S,5R,6R)-3,4,5-triacetoxy-6-(acetoxymethyl)tetrahydro-2H-pyran-2-yl)-1H-1,2,3-triazol-4-yl)methyl)carbamoyl)-1,2-dihydro-[1,2,4]triazolo[4,3-a]quinolin-2-ium bromide] | capable of entering the cytoplasm of the cells; however, they did not penetrate the nuclei | – | –
11 | 452 | 0.45 | 462 | 0.59 | CC[N+]1(CC)CN2C(=N1)C(C(=O)NCc1cn(C3CC(n4cc(C)c(=O)[nH]c4=O)OC3CO)nn1)=Cc1ccccc12 (stereo not shown) [Compound 13, 4-(((1-((2-(hydroxymethyl)-5-(5-methyl-2,4-dioxo-1,2,3,4-tetrahydropyrimidin-1-yl)oxolan-3-yl)-1H-1,2,3-triazol-4-yl)methyl)carbamoyl)-2,2-diethyl-1,2-dihydro-[1,2,4]triazolo[4,3-a]quinolin-2-ium bromide] | capable of entering the cytoplasm of the cells; however, they did not penetrate the nuclei | – | –
12 | 454 | 0.53 | 459 | 0.55 | CC[N+]1(CC)CN2C(=N1)C(C(=O)NCCCCCn1cc(CO)nn1)=Cc1ccccc12.[Br-] [Compound 15, 2,2-Diethyl-4-({5-[4-(hydroxymethyl)-1H-1,2,3-triazol-1-yl]pentyl}carbamoyl)-1H,2H-[1,2,4]triazolo[4,3-a]quinolin-2-ium bromide] | capable of entering the cytoplasm of the cells; however, they did not penetrate the nuclei | – | –
13 | – | – | – | – | CC[N+]1(CC)CN2C(C)=CC(C)=C(C(=O)[O-])C2=N1 [Compound A1] | – | – | Fluorescence quantum yield (ϕ) of standard [4]: 0.755
